Legend:
Assay type in all cases: in vivo
NMDA-induced convulsions = experiment: Neuroprotective/anticonvulsant activity against NMDA-induced convulsions and mortality in mice; details: for CD50 (95% confidence interval): icv, NMDA 1 nmole/mouse; for CD50 (95% confidence interval) / time course of protecting effects: mice; for neuroprotectant activity, dose dependence: NMDA challenge in mice, FIGS. 1-3; for time course of protecting effects: i.c.v. preadministration at various doses, NMDA challenge
Protocol: The term CD50 as shown in Table 1 is defined as the dose of drug which induces a 50% reduction in the number of deaths caused by NMDA administration.
For purposes of comparison, the compounds of the present invention and reference standards were administered to mice and the time course of neuroprotectant activity was determined subsequent to challenge by NMDA. Compounds were administered i.c.v. or i.p. at different times and concentrations prior to injection of NMDA (1 nmol/mouse, I.C.V.). The mortality rate (CD50) TABLE I and the response curves.
In FIG. 1, dextrorphan was i.c.v. preadministered at a concentration of 1.0 (closed circle); 5.0 (open square); and 10 (closed square) nmole/mouse. The open circle represents preadministration of saline at a concentration of 10 μl/mouse.
A does dependent time course profile of the neuroprotectant activity against NMDA induced convulsions of compound #9 in mice is illustrated in FIG. 3. […] In both FIGS. 2 and 3, the respective compound was preadministered at (open circle); 50 (closed circle); and 100 (closed square) nmole/mouse.
Comparison of anticonvulsant activity of compounds of the
present invention and dextrorphan against NMDA-induced
convulsions in mice (at 1 nmole/mouse)

[1] = Motor coordination by rotarod; details: 8 rpm, Compound #13 compared to dextrorphan
Protocol: Motor effects illicited by various antagonists were assessed using a rotarod treadmill (model 7600, UGO Basile, Italy). The method used was similar to the procedure described by Dunhamand Miya (J. Am. Pharmac. Assoc. 46 208-209-1957). The apparatus consisted of a rod of 2.5 cm diameter which was suspended horizontally 50 cm above a working area. The rod was turned at a speed of 8 rpm. Circular perplex separators were placed at intervals along the rod so that five animals could be tested simultaneously. All animals were conditioned to the rod for two consecutive days prior to experimentation.
The results of a study in which comparative motor impairment caused by Compound #13 was compared to dextrorphan, as assessed by rotarod.

[2] = Locomotion and falling behaviour; details: I.C.V., mice, observed 15 to 30 minutes
Protocol: Mice were place individually in observation cages for a 60 minute habituation period. They were injected I.C.V. with test compounds and observed for 15 to 30 minutes. Locomotion and falling behavior were assessed according to the procedure of Koek and Colpaert (J. Pharm. Exp. Therm. 252 349-357, 1990). For each animal, the presence of locomotor activity and falling behaviour was recorded. Statistical significance of drug-induced changes in the occurrence of a particular behaviour was tested by means of the method of Fray et al. (Psycopharmacol 69 253-259, 1980). MK-801, known to have intrinsic neurotoxicity, induced falling behaviour at doses as low as 1.5 nmol/mouse.

Q: With `CC12CCCCSC(Cc3ccc(O)cc31)C2N` (single isomer, unassigned; (+)) [Compound #9b, (+)-trans-5,6,7,8,9,11,12-heptahydro-10-thia-3-hydroxy-5-methyl-5,11-methanobenzocyclodecen-13amine] as the molecule, how does the “CD50 (95% confidence interval)” value (NMDA-induced convulsions) read?
A: 1.58 (0.95-2.62) nmo1/mouse

Q: Which “CD50 (95% confidence interval)” value (NMDA-induced convulsions) does the source give for `CC12CCCCSC(Cc3ccc(O)cc31)C2N` (single isomer, unassigned; (-)) [Compound #9a, (-)-trans-5,6,7,8,9,11,12-heptahydro-10-thia-3-hydroxy-5-methyl-5,11-methanobenzocyclodecen-13-amine] here?
A: 2.90 (1.75-4.85) nmo1/mouse

Q: With `COc1ccc2c(c1)C1(C)CCCCSC(C2)C1N` (stereo not shown) [Compound #8b, 5,6,7,8,9,11,12-heptahydro-3-methoxy-5-methyl-10-thia-5,11-methanobenzocyclodecen-13-amine] as the molecule, how does the “CD50 (95% confidence interval)” value (NMDA-induced convulsions) read?
A: 7.64 (4.8-12.0) nmo1/mouse

Q: For `CC12CCCCSC(Cc3ccc(O)cc31)C2N` (stereo not shown) [Compound #9, 5,6,7,8,9,11,12-heptahydro-3-hydroxy-5-methyl-10-thia-5,11-methanobenzocyclodecen-13-amine], which “neuroprotectant activity, dose dependence” value (NMDA-induced convulsions) is on record?
A: dose dependent neuroprotectant activity effect

Q: And the “time course of protecting effects” value (NMDA-induced convulsions)?
A: time-dependent decreases in the protective effects

Q: And the “CD50 (95% confidence interval)” value (NMDA-induced convulsions)?
A: 0.95 (0.62-1.45) nmo1/mouse

Q: Which “CD50 (95% confidence interval)” value (NMDA-induced convulsions) does the source give for `CC12CCCCSC(Cc3ccc(O)cc31)C2NO` (stereo not drawn) [Compound #10, 5,6,7,8,9,11,12-heptahydro-3-hydroxy-5-methyl-10-thia-5,11-methanobenzocyclodecene-13-β-hydroxylamine] here?
A: 1.79 (0.99-3.25) nmo1/mouse

Q: Which “potency relative to Dextrorphan” value (NMDA-induced convulsions; NMDA-induced convulsions in mice) does the source give for `CC12CCCCSC(Cc3ccc(O)cc31)C2NC(=N)N` (stereo not drawn) [Compound #11, trans-5,6,7,8,9,11,12-heptahydro-10-thia-3-hydroxy-5-methyl-5,11-methanobenzocyclodecen-13-guanidine] here?
A: approximately 3 fold

Q: What about the anticonvulsive activity (NMDA-induced convulsions; NMDA-induced convulsions in mice, in words) of the same molecule?
A: greatest activity

Q: What about the “CD50 (95% confidence interval)” value (NMDA-induced convulsions) of the same molecule?
A: 0.16 (0.11-0.25) nmo1/mouse

Q: Which “percentage of animals showing motor effects” value [1] does the source give for `CC12CCCCCC(Cc3ccc(O)cc31)C2N` (stereo not shown) [Compound #13, 5,6,7,8,9,11,12-heptahydro-3-hydroxy-5-methyl-5, 11-methanobenzocyclodecene-13-amine, reference compound] here?
A: higher for animals treated with dextrorphan than for animals treated with Compound #13

Q: And the “neuroprotectant activity, dose dependence” value (NMDA-induced convulsions)?
A: dose dependent neuroprotectant activity effect

Q: What about the “time course of protecting effects” value (NMDA-induced convulsions) of the same molecule?
A: time-dependent decreases in the protecting effects

Q: What about the “CD50 (95% confidence interval)” value (NMDA-induced convulsions) of the same molecule?
A: 28.7 (15.3-53.8) nmo1/mouse

Q: What does the source list for `CN1CC[C@@]23CCCC[C@@H]2[C@@H]1Cc1ccc(O)cc13` [Dextrorphan, dextrorphan, reference compound]?
A: percentage of animals showing motor effects [1]: higher for animals treated with dextrorphan than for animals treated with Compound #13; neuroprotectant activity, dose dependence (NMDA-induced convulsions): dose dependent neuroprotectant activity effect; time course of protecting effects (NMDA-induced convulsions): time-dependent decreases in the protecting effects; CD50 (95% confidence interval) (NMDA-induced convulsions): 0.55 (0.39-0.78) nmo1/mouse

Q: For `C[C@]12N[C@H](Cc3ccccc31)c1ccccc12` [MK-801], which “dose inducing falling behaviour (as low as)” value [2] is on record?
A: 1.5 nmol/mouse
